In publication PMC3156385 (Chemical research in toxicology, 2011):
Where two headings read alike, the source gives them in different places.

Tests used:
rat liver P450 1A1 = target: T1, rat liver P450 1A1 (Rattus norvegicus, UniProt P00185); type: binding; settings: 1.5 µM rat P450 1A1 (low-spin); 1.25~80 µM BSC
T1 sequence (P00185 1-524): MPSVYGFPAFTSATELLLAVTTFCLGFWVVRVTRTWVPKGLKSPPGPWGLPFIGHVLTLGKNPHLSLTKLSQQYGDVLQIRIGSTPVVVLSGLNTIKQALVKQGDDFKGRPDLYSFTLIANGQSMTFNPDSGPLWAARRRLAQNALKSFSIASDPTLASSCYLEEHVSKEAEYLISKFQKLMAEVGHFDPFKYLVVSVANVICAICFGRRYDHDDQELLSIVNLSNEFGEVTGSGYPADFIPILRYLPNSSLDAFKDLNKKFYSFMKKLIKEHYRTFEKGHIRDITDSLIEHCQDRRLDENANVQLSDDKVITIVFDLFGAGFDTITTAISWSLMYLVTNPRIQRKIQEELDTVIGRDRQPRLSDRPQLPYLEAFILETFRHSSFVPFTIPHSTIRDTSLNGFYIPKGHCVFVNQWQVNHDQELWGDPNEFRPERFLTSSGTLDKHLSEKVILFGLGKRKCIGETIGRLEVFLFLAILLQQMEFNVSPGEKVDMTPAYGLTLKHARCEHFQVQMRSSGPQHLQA

rat liver P450 1A2 = target: T2, rat liver P450 1A2 (Rattus norvegicus, UniProt P04799); type: binding
T2 sequence (P04799 1-513): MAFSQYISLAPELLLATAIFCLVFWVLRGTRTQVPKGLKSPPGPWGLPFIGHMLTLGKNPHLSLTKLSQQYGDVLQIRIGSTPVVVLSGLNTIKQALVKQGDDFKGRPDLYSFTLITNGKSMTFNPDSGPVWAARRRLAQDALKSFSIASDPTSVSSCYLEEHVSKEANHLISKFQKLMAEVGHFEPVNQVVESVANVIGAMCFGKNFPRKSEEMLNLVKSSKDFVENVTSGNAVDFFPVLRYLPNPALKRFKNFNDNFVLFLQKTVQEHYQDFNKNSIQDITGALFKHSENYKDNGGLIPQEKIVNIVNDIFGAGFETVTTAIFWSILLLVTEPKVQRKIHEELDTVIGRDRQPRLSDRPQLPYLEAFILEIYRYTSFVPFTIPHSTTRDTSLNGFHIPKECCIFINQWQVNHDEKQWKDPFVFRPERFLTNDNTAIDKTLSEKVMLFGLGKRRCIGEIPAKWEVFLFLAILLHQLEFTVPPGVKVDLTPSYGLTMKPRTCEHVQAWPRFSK

P450 1A1 = target: T3, P450 1A1 (Homo sapiens, UniProt P04798); test: Inhibition of P450 1A1-dependent EROD activity; type: biochemical
T3 sequence (P04798 1-512): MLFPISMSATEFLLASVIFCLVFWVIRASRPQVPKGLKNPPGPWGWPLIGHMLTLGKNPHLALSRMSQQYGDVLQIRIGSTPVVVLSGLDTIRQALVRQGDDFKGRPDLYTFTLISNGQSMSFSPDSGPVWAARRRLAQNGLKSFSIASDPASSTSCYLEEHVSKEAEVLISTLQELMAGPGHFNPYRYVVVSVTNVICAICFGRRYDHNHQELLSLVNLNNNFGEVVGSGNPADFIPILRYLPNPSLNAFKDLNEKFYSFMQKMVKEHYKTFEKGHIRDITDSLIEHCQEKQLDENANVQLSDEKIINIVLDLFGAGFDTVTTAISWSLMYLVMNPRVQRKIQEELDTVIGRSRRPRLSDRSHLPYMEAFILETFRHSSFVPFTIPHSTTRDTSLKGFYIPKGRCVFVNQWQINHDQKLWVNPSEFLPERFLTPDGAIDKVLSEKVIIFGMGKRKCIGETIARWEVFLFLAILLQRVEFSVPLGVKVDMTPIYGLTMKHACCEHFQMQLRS

P450 2A6 = target: T4, P450 2A6 (Homo sapiens, UniProt P11509); test: Inhibition of P450 2A6-dependent coumarin 7-hydroxylation; type: biochemical
T4 sequence (P11509 1-494): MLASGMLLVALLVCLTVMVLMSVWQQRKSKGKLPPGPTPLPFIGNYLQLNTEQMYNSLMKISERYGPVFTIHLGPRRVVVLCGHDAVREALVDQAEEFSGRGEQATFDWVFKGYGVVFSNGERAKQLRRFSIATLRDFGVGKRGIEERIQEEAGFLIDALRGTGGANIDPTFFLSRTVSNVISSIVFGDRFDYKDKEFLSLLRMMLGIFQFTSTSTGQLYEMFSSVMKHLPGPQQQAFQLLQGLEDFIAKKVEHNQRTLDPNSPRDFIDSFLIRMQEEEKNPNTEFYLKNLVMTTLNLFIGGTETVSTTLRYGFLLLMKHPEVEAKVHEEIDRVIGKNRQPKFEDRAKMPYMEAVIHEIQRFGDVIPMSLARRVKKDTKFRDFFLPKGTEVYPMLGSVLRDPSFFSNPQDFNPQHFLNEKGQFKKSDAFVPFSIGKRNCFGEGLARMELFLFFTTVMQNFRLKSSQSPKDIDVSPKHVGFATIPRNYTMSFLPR

P450 2A13 [1] = target: T5, P450 2A13 (Homo sapiens, UniProt Q16696); test: Inhibition of P450 2A13-dependent coumarin 7-hydroxylation; type: biochemical
T5 sequence (Q16696 1-494): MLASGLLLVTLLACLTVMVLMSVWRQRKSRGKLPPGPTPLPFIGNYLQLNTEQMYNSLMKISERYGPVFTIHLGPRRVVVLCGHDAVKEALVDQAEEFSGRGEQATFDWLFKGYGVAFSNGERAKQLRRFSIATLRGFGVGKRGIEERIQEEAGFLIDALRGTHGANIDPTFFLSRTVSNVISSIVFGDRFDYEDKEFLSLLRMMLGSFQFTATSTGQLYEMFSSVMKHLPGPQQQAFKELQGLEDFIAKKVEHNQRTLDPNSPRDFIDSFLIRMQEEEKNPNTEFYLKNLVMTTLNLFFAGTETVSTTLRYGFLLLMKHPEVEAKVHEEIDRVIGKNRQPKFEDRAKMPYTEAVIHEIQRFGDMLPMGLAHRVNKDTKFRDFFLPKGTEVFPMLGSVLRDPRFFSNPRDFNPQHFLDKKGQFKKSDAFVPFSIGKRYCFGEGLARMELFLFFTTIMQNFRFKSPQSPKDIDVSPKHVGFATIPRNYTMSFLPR

P450 2A13 [2] = target: T5, P450 2A13; type: biochemical
P450 2A13 [3] = target: T5, P450 2A13; test: Spectral binding titration with purified recombinant P450 2A13; settings: for ΔAmax/Ks / ΔAmax: Type I binding; for ΔAmax: means ± SE
P450 2A13 [4] = test: as above; settings: Ks P450 2A6 / Ks P450 2A13

Row | SMILES | spectral changes (rat liver P450 1A1) | Kd (rat liver P450 1A2) | IC50 (P450 1A1) | IC50 (P450 2A6) | IC50 (P450 2A13 [1]) | effect of preincubation on inhibition potency of coumarin 7-hydroxylation (P450 2A13 [2]) | Kd (P450 2A13 [3]) | ΔAmax/Ks (P450 2A13 [3]; 1 µM P450) | ΔAmax (P450 2A13 [3]; 1 µM P450) | type of binding spectra (P450 2A13 [3]; difference spectra) | Ks of P450 2A13 lower than with P450 2A6 (P450 2A13 [4]) | effect of preincubation on inhibition potency of coumarin 7-hydroxylation (P450 2A13 [2]; preincubation 15 min with NADPH vs without) | coumarin 7-hydroxylation, % of control (P450 2A13 [2]; with preincubation 15 min with NADPH, 1.0 µM coumarin, BSC 1.2 µM, m-XSC 0.22 µM) | coumarin 7-hydroxylation, % of control (P450 2A13 [2]; without preincubation, 1.0 µM coumarin, BSC 1.2 µM, m-XSC 0.22 µM) | coumarin 7-hydroxylation (P450 2A13 [2]; without preincubation, 1.0 µM coumarin, BSC 1.2 µM, m-XSC 0.22 µM, control 1.04) | ΔAmax/Ks (P450 2A13 [3]; as printed in text without ×10^−3)
1 | N#C[Se]Cc1ccccc1 [BSC, benzyl selenocyanate] | did not show any spectral changes | 16000 ± 2400 nM | 450 ± 38 nM | 4300 ± 360 nM | 1200 ± 190 nM | did not change the inhibition potencies | 200 ± 21 nM | 470.00 × 10^−3 | 94 ± 1.5 × 10^−3 | Type I | 10 fold | – | – | – | – | –
2 | N#C[Se]Cc1cccc(C[Se]C#N)c1 [m-XSC, 1,3-phenylenebis(methylene)selenocyanate] | – | – | – | 2400 ± 190 nM | 220 ± 31 nM | – | 200 ± 15 nM | 395.00 × 10^−3 | 79 ± 0.91 × 10^−3 | – | 28 fold | did not change the inhibition potencies | 54 % of control | 56 % of control | 0.59 nmol/min/nmol P450 | 0.40
